Laboratory results from US5691361A, “1,4-dihydropyridine derivatives, a process for their preparation and their use for influencing the blood flow” (priority 1995, dated 1997).

Test system: rabbit aorta strips
Assay: Vasoconstrictory effect in rabbit aorta strips at low depolarizing conditions (10 mM K+)
Type: cell-based
Conditions: Oryctolagus cuniculus; rabbit aorta strips predepolarized with 10 mM K+
Method: The vasoconstrictory effects are measured at low depolarizing conditions in rabbit aorta strips. 10 mM K^+ is used to obtain a low starting concentration. Subsequently, increasing concentrations of the test compound are added in order to achieve an increase in contraction.
The EC50 (negative logarithm of the molar concentration required to increase the calcium induced contraction of low K^+ depolarized rabbit aorta by 50%) is analysed by interpolation of the corresponding concentration-response curves (table 4).

EC50: 13 nM
SMILES: COC(=O)C1=C(C)NC(C)=C([N+](=O)[O-])C1c1ccccc1C(F)(F)F (stereo not shown) [BayK-8644, 2,6-dimethyl-3-nitro-4-(2-trifluoromethylphenyl)-1,4-dihydropyridine-5-carboxylic acid methylester, reference compound]
